The results in this text go back to PMC5085761 (International Journal of Molecular Sciences, 2016).

For one data set, the target named is T1, human MRP4 (Homo sapiens, UniProt O15439).
T1 construct: purchased GenoMembrane Co., Ltd. (Kanagawa, Japan); host or cells: Sf9
T1 sequence (O15439 1-1325): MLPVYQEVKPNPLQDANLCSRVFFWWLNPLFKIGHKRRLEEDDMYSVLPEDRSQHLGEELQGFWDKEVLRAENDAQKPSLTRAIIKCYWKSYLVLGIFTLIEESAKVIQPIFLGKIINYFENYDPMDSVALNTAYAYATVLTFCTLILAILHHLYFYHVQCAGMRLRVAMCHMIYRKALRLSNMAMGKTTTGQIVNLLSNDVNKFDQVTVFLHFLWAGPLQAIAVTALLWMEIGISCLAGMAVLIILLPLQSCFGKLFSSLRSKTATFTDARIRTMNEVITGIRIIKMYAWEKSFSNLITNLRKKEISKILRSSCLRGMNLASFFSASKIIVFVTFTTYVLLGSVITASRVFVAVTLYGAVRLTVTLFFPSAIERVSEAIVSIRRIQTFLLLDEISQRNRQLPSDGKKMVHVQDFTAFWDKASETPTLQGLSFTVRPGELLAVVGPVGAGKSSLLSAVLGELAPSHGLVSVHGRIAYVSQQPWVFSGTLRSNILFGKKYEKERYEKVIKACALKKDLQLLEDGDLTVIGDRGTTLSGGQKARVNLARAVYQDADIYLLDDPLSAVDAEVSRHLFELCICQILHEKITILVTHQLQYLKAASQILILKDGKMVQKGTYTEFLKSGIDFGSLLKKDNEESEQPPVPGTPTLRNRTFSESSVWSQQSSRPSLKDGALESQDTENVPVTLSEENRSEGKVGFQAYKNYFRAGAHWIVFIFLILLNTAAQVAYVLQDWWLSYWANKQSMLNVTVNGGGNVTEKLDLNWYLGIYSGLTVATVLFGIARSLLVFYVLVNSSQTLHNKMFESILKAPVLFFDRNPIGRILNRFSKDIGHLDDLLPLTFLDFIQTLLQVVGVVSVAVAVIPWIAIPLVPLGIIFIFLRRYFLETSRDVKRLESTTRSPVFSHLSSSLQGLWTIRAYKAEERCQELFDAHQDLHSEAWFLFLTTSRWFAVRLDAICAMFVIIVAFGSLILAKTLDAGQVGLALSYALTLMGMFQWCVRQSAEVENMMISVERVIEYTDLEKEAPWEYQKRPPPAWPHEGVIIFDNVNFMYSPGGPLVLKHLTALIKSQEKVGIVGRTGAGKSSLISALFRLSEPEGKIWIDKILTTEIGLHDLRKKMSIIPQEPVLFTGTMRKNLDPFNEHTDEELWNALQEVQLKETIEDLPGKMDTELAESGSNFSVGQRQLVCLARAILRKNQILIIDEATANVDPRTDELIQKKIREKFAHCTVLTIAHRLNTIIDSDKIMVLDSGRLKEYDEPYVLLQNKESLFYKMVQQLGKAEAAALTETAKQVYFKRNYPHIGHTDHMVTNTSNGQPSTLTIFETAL
As to the kind of experiment: [14C]fluciclovine uptake by MRP4-expressing inside-out vesicles. The data set is classed as in vitro ADME. The method, then:
For ABC transporters, experimental kits containing Sf9-derived vesicles with high expression levels of human P-gp, MRP4, BCRP, and each ABC transporter (including buffer, ATP/AMP solution, and glutathione) were purchased from GenoMembrane Co., Ltd. (Kanagawa, Japan).
Vesicular transport assays were carried out according to the manufacturer’s protocol. […] The reaction was started by suspending 50 μg of vesicles (10 μL) in 40 μL of the reaction buffer. After incubation for an appropriate period of time, the reaction was stopped by the addition of ice-cold stop buffer (40 mM MOPS-Tris and 70 mM KCl; pH 7.0), after which the solution was filtered through a 0.45 μm HA filter (Millipore Corp., Billerica, MA, USA) using suction, and was washed twice in 5 mL of ice-cold stop buffer. The radioactivity of the filter was measured with a Tri-Carb 2910TR liquid scintillation counter (PerkinElmer) using Ultima Gold (PerkinElmer). The amount of tracer uptake was normalized to the membrane protein amount described in the product information sheets.

A further data set concerns the target T2, OAT3 (Homo sapiens, UniProt Q8TCC7).
T2 construct: host or cells: HEK293
T2 sequence (Q8TCC7 1-542): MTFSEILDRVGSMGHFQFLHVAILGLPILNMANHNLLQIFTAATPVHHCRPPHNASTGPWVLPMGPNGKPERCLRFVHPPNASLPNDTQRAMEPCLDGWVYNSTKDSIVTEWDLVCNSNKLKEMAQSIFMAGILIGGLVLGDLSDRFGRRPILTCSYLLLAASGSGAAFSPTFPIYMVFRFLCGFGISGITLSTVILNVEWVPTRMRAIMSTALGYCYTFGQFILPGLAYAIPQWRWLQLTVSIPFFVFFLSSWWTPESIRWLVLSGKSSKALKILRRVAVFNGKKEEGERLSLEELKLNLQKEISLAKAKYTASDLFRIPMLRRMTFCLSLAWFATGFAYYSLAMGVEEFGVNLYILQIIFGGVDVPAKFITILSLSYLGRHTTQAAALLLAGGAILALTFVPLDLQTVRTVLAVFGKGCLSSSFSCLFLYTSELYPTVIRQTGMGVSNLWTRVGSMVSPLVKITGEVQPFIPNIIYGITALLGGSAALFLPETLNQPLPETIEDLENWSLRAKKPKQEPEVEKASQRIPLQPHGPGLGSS
The experiment in a line: [14C]fluciclovine uptake by OAT3-expressing cells. It is filed as in vitro ADME. Conditions: OAT3 cells vs mock cells.

Regarding `N[14C]1(C(=O)O)CC(F)C1` (stereo not drawn) [[^14C]fluciclovine, trans-1-amino-3-fluoro[1-^14C]cyclobutanecarboxylic acid], on human MRP4, the “uptake compared with control vesicles” value is recorded as “no significant difference”. The drug transporter-mediated uptake result at OAT3 was “negligible”.
